Key:
[1] = biological target: human Oxytocin Receptor (hOTR) (Homo sapiens (Human), UniProt P30559); assay: Oxytocin receptor antagonist assay (oxytocin-evoked calcium, FLIPR, CHEM-1-hOTR cells); type: cell-based; settings: read-out: OT IC50
Method in brief: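 Antagonist mode in CHEM-1-hOTR cells loaded with Calcium-6 dye; compounds (10-point, 1:3 series) preincubated 15 min at 37 °C, then oxytocin added at daily-determined EC80 in HBSS/20 mM HEPES with 0.1% BSA. Fluorescence (ex 470-495, em 515-575 nm) followed 3 min on FLIPR^TETRA; concentration-dependent reduction of oxytocin response measured.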

[2] = biological target: human Arginine Vasopressin Receptor V2 (AVPR2) (Homo sapiens (Human), UniProt P30518); assay: Vasopressin V2 receptor antagonist assay (cAMP TR-FRET, 1321N1 cells); type: cell-based
[3] = tested on: wild-type (WT) MDCK cells; assay: MDR1-MDCK effective efflux assay (Transwell, 10 μM, 1 hour), wild-type MDCK cells; type: in vitro ADME; settings: for Papp AB WT: wild-type MDCK cells, apical to basolateral (A>B), 10 μM, 1 hour; for WT ER: MDCK
Method in brief: (§1)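 Wild-type and MDR1-MDCK monolayers cultured 3 days were dosed with compound at 10 μM (0.1% DMSO) in HBSS/25 mM HEPES pH 7.4, in both A>B and B>A directions, for 1 h at 37 °C. Samples were quantified by LC-MS/MS to give Papp and efflux ratio. Effective efflux ratio = ER(MDR1-MDCK)/ER(wild-type); Lucifer Yellow checked monolayer integrity.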

MDR1 (P-glycoprotein) = assay: MDR1-MDCK effective efflux assay (Transwell, 10 μM, 1 hour), MDR1-MDCK cells; type: in vitro ADME; settings: dog, MDCK-MDR1, pH 7.4, Papp AB MDR1
Method in brief: as §1

[4] = MDR1-MDCK effective efflux assay (Transwell, 10 μM, 1 hour), wild-type MDCK cells; type: in vitro ADME; settings: dog, MDCK, pH 7.4, Papp AB WT
Method in brief: as §1

human Oxytocin Receptor (hOTR), sequence (P30559 whole entry): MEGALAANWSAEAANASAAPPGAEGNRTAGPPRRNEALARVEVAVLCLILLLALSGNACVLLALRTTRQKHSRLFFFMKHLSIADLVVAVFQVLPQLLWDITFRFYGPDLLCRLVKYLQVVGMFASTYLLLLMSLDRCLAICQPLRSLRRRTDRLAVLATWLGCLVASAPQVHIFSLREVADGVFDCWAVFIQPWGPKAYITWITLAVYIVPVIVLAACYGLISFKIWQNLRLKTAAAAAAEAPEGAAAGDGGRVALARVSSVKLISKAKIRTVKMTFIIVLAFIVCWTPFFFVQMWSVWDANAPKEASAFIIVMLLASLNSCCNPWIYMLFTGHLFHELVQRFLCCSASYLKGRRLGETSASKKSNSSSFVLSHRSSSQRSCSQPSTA
human Arginine Vasopressin Receptor V2 (AVPR2), sequence (P30518 whole entry): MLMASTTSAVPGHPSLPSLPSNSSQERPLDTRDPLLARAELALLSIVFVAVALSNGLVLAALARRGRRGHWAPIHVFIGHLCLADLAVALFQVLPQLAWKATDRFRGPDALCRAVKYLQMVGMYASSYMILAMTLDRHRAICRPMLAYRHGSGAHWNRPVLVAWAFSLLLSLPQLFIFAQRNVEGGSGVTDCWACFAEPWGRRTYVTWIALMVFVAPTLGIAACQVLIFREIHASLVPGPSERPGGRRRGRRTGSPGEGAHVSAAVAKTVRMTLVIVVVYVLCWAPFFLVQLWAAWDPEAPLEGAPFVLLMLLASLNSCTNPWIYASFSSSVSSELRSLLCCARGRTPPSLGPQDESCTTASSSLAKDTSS

COC(=O)N1Cc2cc(Cl)ccc2-n2c(C3CC4(C3)CN(c3ccc(F)cn3)C4)nnc2C1C (single isomer, unassigned) [142A]
IC50 [1]: > 1 µM | IC50 [2]: > 1 µM | Papp AB WT [3]: ++++ ((++++) denotes >20 (10^-6 cm/sec))

COC(=O)N1Cc2cc(Cl)ccc2-n2c(C3CC4(C3)CN(c3cnccn3)C4)nnc2C1C (single isomer, unassigned) [Cpd 165A]
IC50 [1]: 0.5 to 1 µM | IC50 [2]: > 1 µM | Papp AB WT [3]: ++++ ((++++) denotes >20 (10^-6 cm/sec))

CC(C)OC(=O)N1Cc2cc(Cl)ccc2-n2c(C3CC4(C3)CN(c3ncccn3)C4)nnc2C1C (single isomer, unassigned) [Cpd 167A]
IC50 [1]: 0.5 to 1 µM | IC50 [2]: > 1 µM | Papp AB WT [3]: ++++ ((++++) denotes >20 (10^-6 cm/sec))

CCOC(=O)N1Cc2cc(Cl)ccc2-n2c(C3CC4(C3)CN(c3ncccn3)C4)nnc2C1C (single isomer, unassigned) [Cpd 168A]
IC50 [1]: 0.5 to 1 µM | IC50 [2]: > 1 µM | Papp AB WT [3]: ++++ ((++++) denotes >20 (10^-6 cm/sec))

CCOC(=O)N1Cc2cc(Cl)ccc2-n2c(C3CC4(C3)CN(c3ccc(F)cn3)C4)nnc2C1C (single isomer, unassigned) [Cpd 169A]
IC50 [1]: 0.1 to 0.5 µM | IC50 [2]: > 1 µM | Papp AB WT [3]: ++++ ((++++) denotes >20 (10^-6 cm/sec))

CC1c2nnc(C3CC4(C3)CN(c3ncccn3)C4)n2-c2ccc(Cl)cc2CN1C(=O)OC1CC1 (single isomer, unassigned) [Cpd 171A]
IC50 [1]: > 1 µM | IC50 [2]: > 1 µM | Papp AB WT [3]: ++++ ((++++) denotes >20 (10^-6 cm/sec))

CC1c2nnc(C3CC4(C3)CN(c3ccc(F)cn3)C4)n2-c2ccc(Cl)cc2CN1C(=O)C1(F)CC1 (single isomer, unassigned) [Cpd 174A]
IC50 [1]: 0.1 to 0.5 µM | IC50 [2]: > 1 µM | Papp AB WT [3]: ++++ ((++++) denotes >20 (10^-6 cm/sec))

CC1c2nnc(C3CC4(C3)CN(c3ccc(F)cn3)C4)n2-c2ccc(Cl)cc2CN1C(=O)C(C)(C)F (single isomer, unassigned) [Cpd 178A]
IC50 [1]: 0.1 to 0.5 µM | IC50 [2]: 0.1 to 0.5 µM | Papp AB WT [3]: ++++ ((++++) denotes >20 (10^-6 cm/sec))

CC1c2nnc(C3CC4(C3)CN(c3ccccn3)C4)n2-c2ccc(Cl)cc2CN1C(=O)C1(F)CC1 (single isomer, unassigned) [Cpd 181A]
IC50 [1]: 0.1 to 0.5 µM | IC50 [2]: 0.1 to 0.5 µM | Papp AB WT [3]: ++++ ((++++) denotes >20 (10^-6 cm/sec))

CC1c2nnc(C3CC4(C3)CN(c3ccc(F)cn3)C4)n2-c2ccc(Cl)cc2CN1C(=O)OC1CC1 (single isomer, unassigned) [Cpd 191A]
IC50 [1]: 0.1 to 0.5 µM | IC50 [2]: > 1 µM | Papp AB WT [3]: ++++ ((++++) denotes >20 (10^-6 cm/sec))

CC1c2nnc(C3CC4(C3)CN(c3ncc(F)cn3)C4)n2-c2ccc(Cl)cc2CN1C(=O)OC1CC1 (single isomer, unassigned) [Cpd 192A]
IC50 [1]: > 1 µM | IC50 [2]: > 1 µM | Papp AB WT [3]: ++++ ((++++) denotes >20 (10^-6 cm/sec))

CC(C)OC(=O)N1Cc2cc(Cl)ccc2-n2c(C3CC4(C3)CN(c3ncc(F)cn3)C4)nnc2C1C (single isomer, unassigned) [Cpd 201A]
IC50 [2]: > 1 µM | Papp AB WT [3]: ++++ ((++++) denotes >20 (10^-6 cm/sec))

CC1c2nnc(C3CC4(C3)CN(c3ncccn3)C4)n2-c2ccc(Cl)cc2CN1C(=O)OC(CF)CF (single isomer, unassigned) [Cpd 202A]
IC50 [1]: > 1 µM | IC50 [2]: > 1 µM | Papp AB WT [3]: ++++ ((++++) denotes >20 (10^-6 cm/sec))

CN1Cc2cc(Cl)ccc2-n2c(nnc2C2CC3(C2)CN(c2ccc(F)cn2)C3)C1 [compound 1, 8-chloro-1-(2-(5-fluoropyridin-2-yl)-2-azaspiro[3.3]heptan-6-yl)-5-methyl-5,6-dihydro-4H-benzo[f][1,2,4]triazolo[4,3-a][1,4]diazepine]
IC50 [1]: > 1 µM | IC50 [2]: > 1 µM | Papp A→B at 1 h, 10 μM (MDR1 (P-glycoprotein)): 7 to 10 ×10⁻⁶ cm/s | WT ER [3]: ++ | Papp A→B at 1 h, 10 μM [4]: > 20 ×10⁻⁶ cm/s

CN1Cc2cc(Cl)ccc2-n2c(nnc2C2CC3(C2)CN(c2cccc(F)n2)C3)C1 [compound 8]
IC50 [1]: > 1 µM | IC50 [2]: > 1 µM | Papp A→B at 1 h, 10 μM (MDR1 (P-glycoprotein)): > 20 ×10⁻⁶ cm/s | WT ER [3]: ++++ | Papp A→B at 1 h, 10 μM [4]: > 20 ×10⁻⁶ cm/s

Clc1ccc2c(c1)CN(C1COC1)Cc1nnc(C3CC4(C3)CN(c3ccccn3)C4)n1-2 [compound 57, 8-chloro-5-(oxetan-3-yl)-1-(2-(pyridin-2-yl)-2-azaspiro[3.3]heptan-6-yl)-5,6-dihydro-4H-benzo[f][1,2,4]triazolo[4,3-a][1,4]diazepine]
IC50 [1]: > 1 µM | IC50 [2]: > 1 µM | Papp A→B at 1 h, 10 μM (MDR1 (P-glycoprotein)): < 7 ×10⁻⁶ cm/s | WT ER [3]: +++ | Papp A→B at 1 h, 10 μM [4]: > 20 ×10⁻⁶ cm/s

From patent publication US11186577B2, “Vasopressin receptor antagonists and products and methods related thereto” (BlackThorn Therapeutics, Inc., priority 2017, dated 2021)
